The structures appear in SMILES notation.

Test [1] has as its target T1, ODH (oligosaccharide dehydrogenase) (Trametes cinnabarina, UniProt A0A060SC37).
T1 construct: gene BN946_scf184803.g17
As to the kind of experiment: X-ray crystallography. The format is binding. To be noted: ligand-free (sugar-free) enzyme, 1.6 Å; non-covalently bound, oxidized FAD.

Test [2] concerns the target T1, ODH (oligosaccharide dehydrogenase). Briefly: X-ray crystallography of soaked crystals (data not shown). To be noted: bound at three external surface sugar-binding sites, not in the active site.

T1 sequence (A0A060SC37 entry or part of it): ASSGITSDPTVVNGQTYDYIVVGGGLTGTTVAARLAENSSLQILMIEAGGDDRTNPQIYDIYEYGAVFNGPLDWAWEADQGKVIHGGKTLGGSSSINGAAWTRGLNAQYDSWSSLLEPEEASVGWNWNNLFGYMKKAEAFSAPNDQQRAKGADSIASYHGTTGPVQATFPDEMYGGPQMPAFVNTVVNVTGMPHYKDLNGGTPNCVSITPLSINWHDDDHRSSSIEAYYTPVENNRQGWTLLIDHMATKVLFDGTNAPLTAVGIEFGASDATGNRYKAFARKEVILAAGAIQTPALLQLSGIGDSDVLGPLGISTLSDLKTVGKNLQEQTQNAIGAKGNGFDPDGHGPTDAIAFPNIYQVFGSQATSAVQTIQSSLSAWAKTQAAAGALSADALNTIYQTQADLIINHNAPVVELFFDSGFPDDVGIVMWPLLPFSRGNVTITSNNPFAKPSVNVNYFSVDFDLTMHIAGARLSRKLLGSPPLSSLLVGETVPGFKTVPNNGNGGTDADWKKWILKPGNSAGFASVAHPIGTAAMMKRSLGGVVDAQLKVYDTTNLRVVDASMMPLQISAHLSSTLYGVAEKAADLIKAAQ

On to `Cc1cc2nc3c(=O)[nH]c(=O)nc-3n(C[C@H](O)[C@H](O)[C@H](O)COP(=O)(O)OP(=O)(O)OC[C@H]3O[C@@H](n4cnc5c(N)ncnc54)[C@H](O)[C@@H]3O)c2cc1C` [FAD], for which the X-ray crystallography result in test [1] was “The FAD molecule is non-covalently bound to the protein”. For the molecule `OC[C@H]1O[C@@H](O[C@H]2[C@H](O)[C@@H](O)C(O)O[C@@H]2CO)[C@H](O)[C@@H](O)[C@@H]1O` (mixture of isomers) [G4G, cellobiose], in test [2], the “X-ray crystallography of soaked crystals (data not shown)” value is “the ligand was clearly bound to (and modeled at) the three SBSs (data not shown)”.

Values taken from publication PMC8296622, “Crystal structure and functional characterization of an oligosaccharide dehydrogenase from Pycnoporus cinnabarinus provides insights into fungal breakdown of lignocellulose” (Biotechnology for Biofuels, 2021).
